Data set [1] is described as follows: Solubility of compound A in Britton-Robinson buffer at each pH. The conditions noted are these: 20° C., 30 minutes. The class given is physicochemical. As to the method: Regarding a compound A, the solubility was measured by measuring the solubility in the Britton-Robinson buffer at 20° C. at each pH of pHs 1, 3, 5, 7, 9, 11 and 13. The compound A was added to a solution at each pH, the mixture was vigorously stirred for 30 seconds every 5 minutes, and an amount of a physiologically active substance dissolved at a time point of 30 minutes was measured (according to a method of confirming the solubility described in Japanese Pharmacopoeia, general rules).

Here are results for four compounds from US20040137052A1, “Acid-containing preparations” (priority 2001, published 2004).

Structures are written as SMILES.

The melting point is the temperature of the solid-liquid transition.

On to `CC(C)(C(=O)O)c1cn2nc(NCCCN3CCC(OC(c4ccccc4)c4ccccc4)CC3)ccc2n1` [Reference Example 4, 2-[6-[3-[4-(diphenylmethoxy)piperidino]propylamino]imidazo[1,2-b]pyridazin-2-yl]-2-methylpropionic acid], for which the melting point fell in the range of 205 to 206 °C.

Consider `CC(C)(C(=O)O)c1cn2nc(NCCCN3CCC(OC(c4ccccc4)c4ccccc4)CC3)ccc2n1.O.O` [compound A, 2-[6-[3-[4-(diphenylmethoxy)piperidino]propylamino]imidazo[1,2-b]pyridazin-2-yl]-2-methylpropionic acid dihydrate], for which, in data set [1] (acidic or alkaline pH), the “solubility on an acidic side or an alkaline side” value is “enhanced solubility”. The “solubility at neutral pH” value in data set [1] (neutral pH) is given as “hardly dissolved”. `CCOC(=O)CNC(=O)c1cn2nc(NCCCN3CCC(OC(c4ccccc4)c4ccccc4)CC3)ccc2n1` (hydrate or solvate) [Reference Example 7, N-[6-[3-[4-(diphenylmethoxy)piperidino]propylamino]imidazo[1,2-b]pyridazine-2-carbonyl]glycine ethyl ester]: the melting point was in the range of 172 to 174 °C. Same read-out and setting: under `CC(C)(C(=O)O)c1cn2nc(NCCCN3CCC(OC(c4ccccc4)c4ccccc4)CC3)ccc2n1.O.O` (hydrate or solvate) [compound A, 2-[6-[3-[4-(diphenylmethoxy)piperidino]propylamino]imidazo[1,2-b]pyridazin-2-yl]-2-methylpropionic acid dihydrate] stands 203 to 205 °C.
